# Reference: ChEMBL document CHEMBL4177715, “Synthesis of radioiodinated probes targeted toward matrix metalloproteinase-12” (Bioorg Med Chem Lett, 2018)
# pIC50: −log10 of the molar value.
# Assays:
# [1] = target: Macrophage metalloelastase (Homo sapiens, UniProt P39900); assay: Inhibition of recombinant human MMP12 using Mca-Pro-Leu-Gly-Leu-Dpa(Dnp)-Ala-Arg-NH2 as substrate after 30 mins by fluorescence spectrometry
# [2] = target: Collagenase 3 (Homo sapiens, UniProt P45452); assay: Inhibition of recombinant human MMP13 using Mca-Pro-Leu-Gly-Leu-Dpa(Dnp)-Ala-Arg-NH2 as substrate after 30 mins by fluorescence spectrometry
# Macrophage metalloelastase, sequence (P39900 whole entry): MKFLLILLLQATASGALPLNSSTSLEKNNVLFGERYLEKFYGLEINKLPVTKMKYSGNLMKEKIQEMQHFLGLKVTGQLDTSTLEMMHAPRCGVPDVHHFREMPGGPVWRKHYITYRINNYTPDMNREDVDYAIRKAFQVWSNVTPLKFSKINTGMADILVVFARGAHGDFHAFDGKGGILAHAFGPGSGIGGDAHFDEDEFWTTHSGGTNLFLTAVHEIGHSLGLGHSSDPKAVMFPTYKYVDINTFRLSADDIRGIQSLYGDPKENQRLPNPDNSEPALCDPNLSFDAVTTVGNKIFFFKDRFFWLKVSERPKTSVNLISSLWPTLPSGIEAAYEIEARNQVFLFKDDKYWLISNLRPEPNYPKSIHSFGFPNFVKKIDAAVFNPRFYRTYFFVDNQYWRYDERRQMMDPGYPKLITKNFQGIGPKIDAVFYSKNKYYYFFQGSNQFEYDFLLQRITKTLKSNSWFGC
Structure (SMILES),pIC50 [1],pIC50 [2]
CC(C)[C@H](NS(=O)(=O)c1ccc2c(c1)oc1ccc(NC(=O)Oc3ccc(Br)cc3)cc12)C(=O)O,7.96,7.29
CC(C)[C@H](NS(=O)(=O)c1ccc2c(c1)oc1ccc(NC(=O)c3ccc(I)cc3)cc12)C(=O)O,6.30,< 5.70
CC(C)[C@H](NS(=O)(=O)c1ccc2c(c1)oc1ccc(NC(=O)Oc3ccc(F)cc3)cc12)C(=O)O,,7.19

# Further lines, results first:
pIC50 [1],pIC50 [2],Structure (SMILES)
8.07,7.16,CC(C)[C@H](NS(=O)(=O)c1ccc2c(c1)oc1ccc(NC(=O)Oc3ccc(I)cc3)cc12)C(=O)O
6.53,6.39,CC(C)[C@H](NS(=O)(=O)c1ccc2c(c1)oc1ccc(NS(=O)(=O)c3ccc(I)cc3)cc12)C(=O)O
